# According to patent publication US20190070296A1, “SONODYNAMIC THERAPY” (LI-COR, INC., priority 2017, published 2019):
# Tests used:
# [1] = Sonoactivation of IRDye 700DX solution; reactive oxygen species detected with dihydrorhodamine 123 (DHRd123) indicator
# Excerpt: The results illustrate that ultrasonic waves enhance the emission of a reactive oxygen species indicator, which indicates the occurrence of one of the sonodynamic effects generated by applying ultrasonic energy to IRDye® 700DX under the experimental conditions. In this example, the concentration of IRDye® 700DX was 1 μm.
# The experiment included dihydroxy rhodamine 123 to detect the presence of reactive oxygen species. Reactive oxygen species were detected.
# The results illustrate a continuous treatment of a 1 MHz ultrasonic wave. […] The experiment included dihydroxy rhodamine 123 to detect the presence of reactive oxygen species. Reactive oxygen species were detected. […]
# [2] = Sonoactivation of IRDye 700DX solution; singlet oxygen detected with Sensor Green indicator; conditions: ultrasonic wave at 1MHz and 2.0W/cm^2
# Excerpt: As shown therein, there is generation of singlet oxygen during the sonodynamic process. By applying the ultrasonic wave at 1MHz and 2.0W/cm^2 to the agent IRDye® 700DX, the enhancement of the emission of the singlet oxygen indicator, Sensor Green (SG), indicates the occurrence of a sonodynamic effects. Singlet oxygen was detected.
# Both sonosensitization, also known as sonodynamic activation or sonoactivation, and photosensitization, also known as photodynamic activation or photoactivation, trigger reactive oxidation species (ROS) or single oxygen (^1O2) that results in cell death via either apoptosis or necrosis, and thus sonodynamic therapy (SDT) or photodynamic therapy (PDT), respectively.
# [3] = Emission profile of IRDye 700DX (700 nm range) after ultrasound: stability of the dye; format: physicochemical; conditions: 1MHz ultrasonic wave at 3 W/cm^2, 15 minutes
# [4] = system: A431 cells; assay: VB-48 Assay: vitality, viability and necrosis after probe labeling and irradiation; format: cell-based; conditions: irradiated 32 J/cm^2; RGD-700DX 0.5 μM, EGF-700DX 0.5 μM, 700DX NHSe 5 μM, Pan-700DX ~0.1 μM; 24 hours post treatment
# Protocol: Briefly, A431 cells were labeled with respective probes for specific treatments (listed below); cells were rinsed and evaluated for labeling. The test include the following treatments: […], treatments 3-4 of EGF-IRDye® 700DX at 0.5 μM and radiation, treatments 5-6 of IRDye® 700DX NHSe at 5 μM and radiation, treatments 7-8 of panitumumab-IRDye® 700DX at about 0.1 μM and radiation, treatment 9 of a negative control with no probe and no irradiation, and treatment 10 of RGD-IRDye® 700DX and no irradiation. The probes were incubated for about 10 minutes and with a longer period of about 20 minutes for the RGD probe.
# [5] = continuous treatment of a 1 MHz ultrasonic wave
molecule,measurement,setting,value
C[Si](C)(CCC[N+](CCCS(=O)(=O)[O-])(CCCS(=O)(=O)[O-])CCCS(=O)(=O)[O-])O[Si]1(O[Si](C)(C)CCC[N+](CCCS(=O)(=O)[O-])(CCCS(=O)(=O)[O-])CCCS(=O)(=O)[O-])n2c3c4ccccc4c2N=C2N=C(N=c4c5ccccc5c(n41)=NC1=NC(=N3)c3ccccc31)c1cccc(OCCCOC(=O)NCCCCCC(=O)ON3C(=O)CCC3=O)c12.[Na+].[Na+].[Na+].[Na+] (centres unmarked) [IRDye® 700DX],Primary Sonodynamic Effect Detected,"[1]; 700DX 1 uM with DHRd123, no sonodynamic activation (placebo), 7 min",None
same,Primary Sonodynamic Effect Detected,"[1]; 700DX 1 uM with DHRd123, no sonodynamic activation (placebo), 15 min",Minimal
same,Primary Sonodynamic Effect Detected,"[1]; 700DX with DHRd123, 1 MHz, 2.2 W/cm^2, 7 + 7 min, duty cycle 20%, 370 J/cm^2",ROS+
same,Primary Sonodynamic Effect Detected,"[1]; 700DX with DHRd123, 1 MHz, 2.2 W/cm^2, 7 min, duty cycle 20%, 185 J/cm^2",ROS
same,Primary Sonodynamic Effect Detected,"[1]; 700DX with DHRd123, 1 MHz, 2.2 W/cm^2, 15 min, duty cycle 20%, 396 J/cm^2",ROS++
same,Primary Sonodynamic Effect Detected,"[1]; 700DX with DHRd123, 3.3 MHz, 3 W/cm^2, 7 min, duty cycle 20%, 252 J/cm^2",ROS
same,Primary Sonodynamic Effect Detected,"[1]; 700DX with DHRd123, 3.3 MHz, 3 W/cm^2, 15 min, duty cycle 20%, 540 J/cm^2",ROS++
same,emission of the reactive oxygen species indicator (FIG. 3),"[1]; IRDye 700DX 1 μm, 1MHz ultrasonic wave at 3 W/cm^2, 15 minutes",large increase in the emission of the indicator
same,emission peak of the reactive oxygen species indicator (FIG. 3),"[1]; IRDye 700DX 1 μm, duration 7 minutes",not as enhanced as with 15 minutes duration
same,"presence of reactive oxygen species (dihydroxy rhodamine 123), FIG. 3","[1]; IRDye 700DX 1 μm, ultrasonic wave 7 or 15 minutes",detected
same,effect of increasing the pulse duration on reactive oxygen species (FIG. 4),[1]; [5],increases the generation of reactive oxygen species
same,"presence of reactive oxygen species (dihydroxy rhodamine 123), FIG. 4",[1]; [5],detected
same,"generation of singlet oxygen (Sensor Green), FIG. 5",[2],detected
same,chemical structure of the dye after sonodynamic activation (emission profile at 700 nm range),[3],did not decompose
"COC(=O)c1ccccc1C1c2ccc(N)cc2Oc2cc(N)ccc21 [Sensitizer DHRd123 Solution, dihydrorhodamine 123, reference compound]",Primary Sonodynamic Effect Detected,"[1]; DHRd123 solution 2.5 uM alone, no IRDye 700DX, no sonodynamic activation",None
same,Primary Sonodynamic Effect Detected,"[1]; DHRd123 solution alone, no IRDye 700DX, 3.3 MHz, 3 W/cm^2, 15 min, duty cycle 20%, 540 J/cm^2",ROS
EGF-700DX,Cells/mL,[4],3.4 × 10^5 Cells/mL
same,Low % Vitality,[4],19%
Pan-700DX: panitumumab antibody labeled with IRDye 700DX,% Healthy,[4],15.0%
same,% Necrotic,[4],70%
same,Cells/mL,[4],1.2 × 10^5 Cells/mL
same,Est % Viability,[4],30-40%
same,Low % Vitality,[4],15%
